Converted amounts (≈) assume the structure as drawn.
Tests used:
[1] = test system: COLO 205; assay: Antiproliferative activity against human COLO 205 cells incubated for 72 hrs by MTS assay; assay type: functional, cell-based; settings: COLO 205, 72 h
[2] = Inhibition of human recombinant COX-1 using arachidonic acid as substrate preincubated for 10 mins followed by substrate addition and measured after 5 mins by ELISA method
[3] = biological target: T1, Prostaglandin G/H synthase 1 (Bos taurus, UniProt O62664); assay: Inhibition of bovine COX-1 using arachidonic acid as substrate preincubated for 10 mins followed by substrate addition and measured after 5 mins by ELISA method
T1 sequence (O62664 whole entry): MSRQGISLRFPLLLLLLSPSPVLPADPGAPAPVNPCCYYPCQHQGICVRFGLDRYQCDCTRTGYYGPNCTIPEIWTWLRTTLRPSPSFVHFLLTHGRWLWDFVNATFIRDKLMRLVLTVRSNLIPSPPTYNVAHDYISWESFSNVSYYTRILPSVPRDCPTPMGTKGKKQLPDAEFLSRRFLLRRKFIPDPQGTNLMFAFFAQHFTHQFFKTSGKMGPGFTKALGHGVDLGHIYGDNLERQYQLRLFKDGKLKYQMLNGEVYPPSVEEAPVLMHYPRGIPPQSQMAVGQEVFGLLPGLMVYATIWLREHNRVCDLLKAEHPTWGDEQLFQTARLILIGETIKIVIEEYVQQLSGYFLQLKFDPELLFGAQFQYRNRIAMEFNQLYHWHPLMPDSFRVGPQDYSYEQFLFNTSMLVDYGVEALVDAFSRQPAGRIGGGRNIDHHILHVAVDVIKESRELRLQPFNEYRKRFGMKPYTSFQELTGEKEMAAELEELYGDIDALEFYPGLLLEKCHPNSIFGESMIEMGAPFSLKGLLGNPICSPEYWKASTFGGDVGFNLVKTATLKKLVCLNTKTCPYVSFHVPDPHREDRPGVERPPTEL

[4] = test system: Hep 3B2; assay: Antiproliferative activity against human Hep3B cells by MTS assay; assay type: functional, cell-based
[5] = test system: HeLa; assay: Antiproliferative activity against human HeLa cells by MTS assay; assay type: functional, cell-based
[6] = test system: Huh-7; assay: Antiproliferative activity against human Huh-7 cells incubated for 72 hrs by SRB method; assay type: functional, cell-based; settings: Huh-7, 72 h
[7] = test system: HCT-116; assay: Antiproliferative activity against human HCT-116 cells incubated for 72 hrs by SRB method; assay type: functional, cell-based; settings: HCT-116, 72 h
[8] = test system: MCF7; assay: Antiproliferative activity against human MCF7 cells; assay type: functional, cell-based
[9] = test system: Hep 3B2; assay: Antiproliferative activity against human Hep3B cells; assay type: functional, cell-based
[10] = Antiproliferative activity against human LX2 cells assessed as inhibition of cell growth incubated for 48 hrs by CellTiter 96 Aqueous One Solution Cell Proliferation Assay; assay type: toxicity, cell-based; settings: LX-2 cells
[11] = Antiproliferative activity against HEK293T cells assessed as inhibition of cell growth incubated for 48 hrs by CellTiter 96 Aqueous One Solution Cell Proliferation Assay; assay type: toxicity, cell-based, HEK-293T; settings: human
[12] = test system: Caco-2; assay: Antiproliferative activity against human Caco-2 cells assessed as inhibition of cell growth incubated for 48 hrs by CellTiter 96 Aqueous One Solution Cell Proliferation Assay; assay type: functional, cell-based; settings: Caco-2, 48 h
[13] = test system: HeLa; assay: cells; settings: Homo sapiens, 48 h
Description: Antiproliferative activity against human HeLa cells assessed as inhibition of cell growth incubated for 48 hrs by CellTiter 96 Aqueous One Solution Cell Proliferation Assay

[14] = test system: MCF7; assay: cells; settings: Homo sapiens, MCF7, 48 h
Description: Antiproliferative activity against human MCF7 cells assessed as inhibition of cell growth incubated for 48 hrs by CellTiter 96 Aqueous One Solution Cell Proliferation Assay

[15] = test system: Hep 3B2; assay: cells; settings: Homo sapiens, Hep3B, 48 h
Description: Antiproliferative activity against human Hep3B cells assessed as inhibition of cell growth incubated for 48 hrs by CellTiter 96 Aqueous One Solution Cell Proliferation Assay

[16] = test system: HepG2; assay: cells; settings: Homo sapiens, HepG2, 48 h
Description: Antiproliferative activity against human HepG2 cells assessed as inhibition of cell growth incubated for 48 hrs by CellTiter 96 Aqueous One Solution Cell Proliferation Assay

[17] = biological target: T2, Prostaglandin G/H synthase 1 (Ovis aries, UniProt P05979)
T2 sequence (P05979 whole entry): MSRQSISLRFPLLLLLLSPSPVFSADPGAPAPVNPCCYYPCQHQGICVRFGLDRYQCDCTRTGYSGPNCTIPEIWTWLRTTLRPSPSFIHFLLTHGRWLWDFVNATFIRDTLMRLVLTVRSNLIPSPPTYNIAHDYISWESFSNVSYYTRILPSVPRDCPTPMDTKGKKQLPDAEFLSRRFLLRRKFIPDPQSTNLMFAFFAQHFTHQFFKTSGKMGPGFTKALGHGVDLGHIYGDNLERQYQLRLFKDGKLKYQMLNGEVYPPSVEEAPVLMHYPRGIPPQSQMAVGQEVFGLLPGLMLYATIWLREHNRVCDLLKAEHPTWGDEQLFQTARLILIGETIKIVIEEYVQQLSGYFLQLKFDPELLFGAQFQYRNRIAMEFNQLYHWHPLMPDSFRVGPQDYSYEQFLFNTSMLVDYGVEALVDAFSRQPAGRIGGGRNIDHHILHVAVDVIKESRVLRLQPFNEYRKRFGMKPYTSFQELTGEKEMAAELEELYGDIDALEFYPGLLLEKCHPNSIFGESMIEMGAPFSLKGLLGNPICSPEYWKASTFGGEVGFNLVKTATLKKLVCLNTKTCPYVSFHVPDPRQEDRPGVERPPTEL
Description: Inhibition of ovine COX-1 by EIA method

## COc1cccc(-c2nc(C(=O)Nc3ccc(C(F)(F)F)cc3)cs2)c1
[1]
  IC50: 30800 nM
[2]
  IC50: 191 nM
[3]
  IC50: 239 nM

## COc1ccc(NC(=O)c2c(-c3ccccc3Cl)noc2C)cc1OC
[4]
  IC50: 24 µg/mL (≈ 64.3 µM)
[5]
  IC50: 15.5 µg/mL (≈ 41.5 µM)

## COc1ccc(-c2nc(C(=O)Nc3cc(OC)c(OC)c(OC)c3)cs2)cc1
[6]
  IC50: 17500 nM
[7]
  IC50: 14600 nM

## Cc1onc(-c2c(F)cccc2Cl)c1C(=O)Nc1ccc(C(C)(C)C)cc1
[8]
  IC50: 9.31 µg/mL (≈ 24.1 µM)
[9]
  IC50: 2.77 µg/mL (≈ 7.16 µM)

## COc1cccc2c1C(=O)c1c(O)c3c(c(O)c1C2=O)C[C@@](O)(C(=O)CO)C[C@@H]3O[C@H]1C[C@H](N)[C@H](O)[C@H](C)O1 [DOXORUBICIN]
[10]
  IC50 at 48 h: 210 nM
[11]
  IC50 at 48 h: 38 nM
[12]
  IC50: 24 nM
[13]
  IC50: < 10 nM
[14]
  IC50: 53 nM
[15]
  IC50: 25 nM

## O=c1[nH]cc(F)c(=O)[nH]1 [FLUOROURACIL]
[10]
  IC50 at 48 h: 178 nM
[11]
  IC50 at 48 h: 4070 nM
[12]
  IC50: 4750 nM
[16]
  IC50: 4070 nM
[13]
  IC50: 7790 nM
[14]
  IC50: 6510 nM
[15]
  IC50: 5110 nM

## CC(C(=O)O)c1cccc(C(=O)c2ccccc2)c1 (stereo not drawn) [KETOPROFEN]
[17]
  IC50: 35 nM
